Experimental data published in patent publication US8507464B2, “Phosphoramidate alkylator prodrugs” (Threshold Pharmaceuticals, Inc., priority 2005, dated 2013).
Read-outs that look alike come from different tables or passages of the source.

Experiments:
[1] = logP (partitioning between octanol and water); format: physicochemical; conditions: read-out: logP
From the text: As used herein “LogP” means a measure of lipophilicity of a substance determined based on the partitioning of the substance betwen octanol and water.

[2] = tested on: HT29 monolayer; test: Clonogenic survival of monolayer cells (Example 35); format: cell-based; conditions: Homo sapiens
[3] = tested on: spheroids; test: Spheroid combination with cisplatin or daunorubicin, clonogenic survival; format: cell-based, human; conditions: Homo sapiens, 2 h exposure
Protocol: The phosphoramidate alkylator prodrug was combined simultaneously with cisplatin or daunorubicin and the spreroids exposed for 2 h to the combination, followed by measurement of clonogenic survival.

[4] = tested on: UV41; test: Clonogenic survival - DNA mutant repair cells; conditions: Cricetulus griseus

## Cn1c(COP(=O)(NCCBr)NCCBr)cnc1[N+](=O)[O-] [Compound 25]
[1]
  logP: < 0
[2]; HT-29, read-out: IC90 HT29 Monolayer 0.6% O2
  IC90: 3 µM
[2]; HT-29, read-out: IC90 HT29 Monolayer Air
  IC90: 40 µM
[2]; HT-29, read-out: IC90 HT29 Monolayer N2
  IC90: 0.2 µM
[3]; read-out: IC50 (μM), spheroids, cisplatin combination experiment
  IC50: 12 µM
[3]; read-out: IC50 (μM), spheroids, daunorubicin combination experiment
  IC50: 9 µM
[4]; read-out: IC90 UV41 Air
  IC90: 17 µM
[4]; read-out: IC90 UV41 N2
  IC90: 0.02 µM
